This note sets out measurements from patent publication US20230210853A1 (Halia Therapeutics, Inc., priority 2020, published 2023).

Read-outs that look alike come from different tables or passages of the source.

The target in experiment [1] is T1, full-length recombinant human NEK7 (Homo sapiens, UniProt Q8TDX7).
T1 construct: full-length recombinant human NEK7; GST (N); purchased SignalChem N09-10G; host or cells: Sf9 insect cells (baculovirus)
In words: NEK7 enzymatic assay ([33P]-ATP, casein substrate). The class given is biochemical. The method in brief:
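GST-tagged enzyme, baculovirus-expressed in Sf9 cells, was mixed with casein in 20 mM Hepes pH 7.5, 10 mM MgCl2, 1 mM EGTA, 0.02% Brij35, 2 mM DTT, 1% DMSO. Compounds (3-fold series, 10 μM–0.5 nM) were preincubated 20 min at RT, then [33P]-ATP was added for 2 h at RT. P81 filter-bound radioactivity was expressed as % of vehicle activity and fitted to IC50.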

The subject of another experiment is IL-1β release. In words: IL-1β release assay (PMA-differentiated THP-1 cells, LPS + nigericin, cleaved IL-1β by JESS). The class given is cell-based. The note with it: Homo sapiens. As for the experimental part: (§1) Approximately 1.5 million THP-1 cells were plated in each well of a 6-well TC plate and incubated with 40 nM PMA in RPMI (10% FBS, 1% Penstrep) for 24 hours. The media was then removed and cells were rested in RPMI (10% FBS, 1% Penstrep) for 24 hours after which time the media was removed and cells were pre-treated for 2 hours with various concentrations of compounds of interest (typically serial 3-fold dilution in RPMI +5% FBS, concentrations ranging from 1 μM to 0.5 nM) in RPMI (5% FBS). The media was again removed and cells were incubated with 250 ng/mL LPS and compounds of interest (concentrations as above) in RMPI (5% FBS) for 2 hours. The media was removed for a last time and cells were incubated with 20 μM nigericin and compounds of interest (concentrations as above) in Opti-MEM for 30 minutes. Cell media was then collected and the amount of cleaved IL-1β was determined using a JESS instrument (Protein Simple) and standard protocols. Cleaved 1-PD antibody was obtained from Cell Signaling (catalogue #83186S) and was used at 1:20 dilution in antibody diluent 2. Protein Simple 1× anti-Rabbit HRP secondary antibody was used along with Protein Simple luminol and peroxide for chemiluminescent detection. Primary antibody incubation time was increased from 30 minutes to 60 minutes.
as §1, with “RPMI+5%” for “RPMI +5%”, “Il-1β” for “1-PD”

[2] abbreviates: Table 2a, recombinant human NEK7, casein substrate.
The mark [3] stands for this setting: Table 2a, THP-1 cells, LPS + nigericin, read-out: II-1β release IC50.
Where [4] appears, read: Table 2b, recombinant human NEK7, casein substrate.
[5] abbreviates: Table 2b, THP-1 cells, LPS + nigericin, read-out: Il-1β release IC50.
Where [6] appears, read: Table 2d, recombinant human NEK7, casein substrate.
[7] abbreviates: 48 h, Table 2d, THP-1 cells, LPS + nigericin, read-out: IL-1β release IC50.

T1 sequence (Q8TDX7 whole entry): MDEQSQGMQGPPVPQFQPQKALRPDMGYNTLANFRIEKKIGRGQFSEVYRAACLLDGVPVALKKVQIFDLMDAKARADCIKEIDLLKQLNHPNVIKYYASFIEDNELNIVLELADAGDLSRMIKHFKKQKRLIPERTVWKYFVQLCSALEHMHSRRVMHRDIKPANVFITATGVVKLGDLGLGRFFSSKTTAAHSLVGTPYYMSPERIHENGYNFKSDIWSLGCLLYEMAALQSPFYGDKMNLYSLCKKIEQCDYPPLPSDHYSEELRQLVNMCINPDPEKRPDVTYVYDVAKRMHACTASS

Broadly, the IC50 is the midpoint of a concentration-inhibition curve. Regarding `Nc1ncnc2c1c(-c1ccc3c(c1F)CCN3C(=O)Cc1cc(C(F)(F)F)ccc1F)cn2C1CC1` [II-17, 1-(5-(4-amino-7-cyclopropyl-7H-pyrrolo[2,3-d]pyrimidin-5-yl)-4-fluoroindolin-1-yl)-2-(2-fluoro-5-(trifluoromethyl)phenyl)ethan-1-one], the IC50 was below 150 nM in experiment [1] (comparative compounds of Structure (II)) and above 1000 nM with IL-1β release (THP-1, comparative compounds of Structure (II), read-out: IL-1β release IC50).
For `CC(C)(C)c1cc(NC(=O)Nc2ccc(-c3nn(C4COC4)c4ncnc(N)c34)cc2F)on1` [Ia-12, 1-(4-(4-amino-1-(oxetan-3-yl)-1H-pyrazolo[3,4-d]pyrimidin-3-yl)-2-fluorophenyl)-3-(3-(tert-butyl)isoxazol-5-yl)urea], the IC50 (in experiment [1] (setting [2]); in the experiment with IL-1β release (setting [3])) was below 150 nM in each case.
Turning to `CC(C)(C)c1cc(NC(=O)Nc2ccc(-c3nn(C4CC4)c4ncnc(N)c34)cc2F)on1` [Ia-13, 1-(4-(4-amino-1-cyclopropyl-1H-pyrazolo[3,4-d]pyrimidin-3-yl)-2-fluorophenyl)-3-(3-(tert-butyl)isoxazol-5-yl)urea], the half-inhibitory concentration (IC50) (in experiment [1] (setting [2]); in the experiment on IL-1β release (setting [3])) was below 150 nM each time.
Turning to `CC(C)(C)c1cc(NC(=O)Nc2ccc(-c3nn(C4CCN(C5COC5)CC4)c4ncnc(N)c34)cc2F)on1` [Ia-14, 1-(4-(4-amino-1-(1-(oxetan-3-yl)piperidin-4-yl)-1H-pyrazolo[3,4-d]pyrimidin-3-yl)-2-fluorophenyl)-3-(3-(tert-butyl)isoxazol-5-yl)urea], the IC50 (in experiment [1] (setting [2]); in the experiment on IL-1β release (setting [3])) was below 150 nM each time.
Regarding `Nc1ncnc2c1c(-c1ccc(NC(=O)Nc3cc(C4(C(F)(F)F)CC4)no3)c(F)c1)nn2C1CC1` [Ia-21], the IC50 (in experiment [1] (setting [2]); in the experiment with IL-1β release (setting [3])) was below 150 nM throughout.
On to `Nc1ncnc2c1c(-c1ccc(NC(=O)Nc3cc(C4(C(F)(F)F)CC4)on3)c(F)c1)nn2C1CC1` [Ia-25, 1-(4-(4-amino-1-cyclopropyl-1H-pyrazolo[3,4-d]pyrimidin-3-yl)-2-fluorophenyl)-3-(5-(1-(trifluoromethyl)cyclopropyl)isoxazol-3-yl)urea], for which the IC50 (in experiment [1] (setting [2]); with IL-1β release (setting [3])) was below 150 nM throughout.
In the case of `CC(C)(C)c1cc(NC(=O)Nc2ccc(-c3nn(C4CC4)c4ccnc(N)c34)cc2F)on1` [Ia-30, 1-(4-(4-amino-1-cyclopropyl-1H-pyrazolo[4,3-c]pyridin-3-yl)-2-fluorophenyl)-3-(3-(tert-butyl)isoxazol-5-yl)urea], the concentration for half-maximal inhibition (IC50) (in experiment [1] (setting [2]); in the experiment with IL-1β release (setting [3])) was below 150 nM each time.
Regarding `CC1(c2cc(NC(=O)Nc3ccc(-c4nn(C5CC5)c5ncnc(N)c45)cc3F)on2)CC1` [Ia-32, 1-(4-(4-amino-1-cyclopropyl-1H-pyrazolo[3,4-d]pyrimidin-3-yl)-2-fluorophenyl)-3-(3-(1-methylcyclopropyl)isoxazol-5-yl)urea], the IC50 is below 150 nM in experiment [1] (setting [2]) and 151 to 300 nM with IL-1β release (setting [3]).
With `CC(C)(C)c1nnc(NC(=O)Nc2ccc(-c3nn(C4CC4)c4ncnc(N)c34)cc2F)s1` [Ia-33, 1-(4-(4-amino-1-cyclopropyl-1H-pyrazolo[3,4-d]pyrimidin-3-yl)-2-fluoropbenyl)-3-(5-(tert-butyl)-1,3,4-thiadiazol-2-yl)urea], the IC50 in experiment [1] (setting [2]) lay in the range of 501 to 1500 nM; with IL-1β release (setting [3]), 301 to 500 nM.
The matching figures for `Nc1nccc2c1c(-c1ccc(NC(=O)Nc3cc(C4(C(F)(F)F)CC4)no3)c(F)c1)nn2C1CC1` [Ia-45, 1-(4-(4-amino-1-cyclopropyl-1H-pyrazolo[4,3-c]pyridin-3-yl)-2-fluorophenyl)-3-(3-(1-(trifluoromethyl)cyclopropyl)isoxazol-5-yl)urea]: 151 to 300 nM and 151 to 300 nM.
With `Cc1c[nH]c2nccc(Oc3ccc(NC(=O)Nc4cc(C(C)(C)C)nn4-c4ccccc4)c(F)c3)c12` [Ib-4, 1-(3-(tert-butyl)-1-phenyl-1H-pyrazol-5-yl)-3-(2-fluoro-4-((3-methyl-1H-pyrrolo[2,3-b]pyridin-4-yl)oxy)phenyl)urea], the IC50 in experiment [1] (setting [4]) is 501 to 1500 nM; in the experiment on IL-1β release (setting [5]), below 150 nM.
Regarding `Cc1cc2c(Oc3ccc(NC(=O)Nc4cc(C(C)(C)C)nn4-c4ccccc4)c(F)c3)ccnc2[nH]1` [Ib-5, 1-(3-(tert-butyl)-1-phenyl-1H-pyrazol-5-yl)-3-(2-fluoro-4-((2-methyl-1H-pyrrolo[2,3-b]pyridin-4-yl)oxy)phenyl)urea], the IC50 is above 1500 nM in experiment [1] (setting [4]) and 151 to 300 nM in the experiment on IL-1β release (setting [5]).
Turning to `CC(C)(C)c1cc(NC(=O)Nc2c(F)cc(Oc3ccnc4[nH]cc(Cl)c34)cc2F)n(-c2ccccc2)n1` [Ib-8], the figures for the IC50 (in experiment [1] (setting [4]); in the experiment on IL-1β release (setting [5])) were above 1500 nM and 301 to 500 nM, respectively.
For the molecule `CC(C)(C)c1cc(NC(=O)Nc2ccc(Oc3ccnc4[nH]cc(Cl)c34)c(F)c2)n(-c2ccccc2)n1` [Ib-12, 1-(3-(tert-butyl)-1-phenyl-1H-pyrazol-5-yl)-3-(4-((3-chloro-1H-pyrrolo[2,3-b]pyridin-4-yl)oxy)-3-fluorophenyl)urea], the IC50 in experiment [1] (setting [4]) was 501 to 1500 nM; in the experiment with IL-1β release (setting [5]), below 150 nM.
The matching figures for `Cc1[nH]c2nccc(Oc3ccc(NC(=O)Nc4cc(C(C)(C)C)nn4-c4ccccc4)c(F)c3)c2c1Cl` [Ib-14]: 501 to 1500 nM and above 1000 nM.
In the case of `CC(C)(C)c1cc(NC(=O)Nc2ccc(Oc3ccnc4[nH]cc(C5CC5)c34)cc2F)n(-c2ccccc2)n1` [Ib-18, 1-(3-(tert-butyl)-1-phenyl-1H-pyrazol-5-yl)-3-(4-((3-cyclopropyl-1H-pyrrolo[2,3-b]pyridin-4-yl)oxy)-2-fluorophenyl)urea], the IC50 is 501 to 1500 nM in experiment [1] (setting [4]) and below 150 nM in the experiment on IL-1β release (setting [5]).
In the case of `CN1CCN(Cc2ccc(NC(=O)Nc3ccc(-c4nn(C5CC5)c5ncnc(N)c45)cc3F)cc2F)CC1` [Id-27, 1-(4-(4-amino-1-cyclopropyl-1H-pyrazolo[3,4-d]pyrimidin-3-yl)-2-fluorophenyl)-3-(3-fluoro-4-((4-methylpiperazin-1-yl)methyl)phenyl)urea], the IC50 (in experiment [1] (setting [6]); in the experiment on IL-1β release (setting [7])) was below 150 nM throughout.
On to `CN1CCN(Cc2ccc(NC(=O)Nc3ccc(-c4nn(CC(C)(C)O)c5ncnc(N)c45)cc3F)cc2C(F)(F)F)CC1` [Id-28, 1-(4-(4-amino-1-(2-hydroxy-2-methylpropyl)-1H-pyrazolo[3,4-d]pyrimidin-3-yl)-2-fluorophenyl)-3-(4-((4-methylpiperazin-1-yl)methyl)-3-(trifluoromethyl)phenyl)urea], for which the half-maximal inhibitory concentration (IC50) (in experiment [1] (setting [6]); in the experiment with IL-1β release (setting [7])) was below 150 nM each time.
`CN1CCN(Cc2ccc(NC(=O)Nc3ccc(-c4nn(C5CC5)c5ccnc(N)c45)cc3F)cc2C(F)(F)F)CC1` [Id-30, 1-(4-(4-amino-1-cyclopropyl-1H-pyrazolo[4,3-c]pyridin-3-yl)-2-fluorophenyl)-3-(4-((4-methylpiperazin-1-yl)methyl)-3-(trifluoromethyl)phenyl)urea]: the IC50 (in experiment [1] (setting [6]); in the experiment on IL-1β release (setting [7])) was below 150 nM throughout.
Turning to `Nc1ncnc2c1c(-c1ccc(NC(=O)Nc3ccc(CN4CCOCC4)c(C(F)(F)F)c3)c(F)c1)cn2C1CC1` [Id-31, 1-(4-(4-amino-7-cyclopropyl-7H-pyrrolo[2,3-d]pyrimidin-5-yl)-2-fluorophenyl)-3-(4-(morpholinomethyl)-3-(trifluoromethyl)phenyl)urea], the results for the IC50 (in experiment [1] (setting [6]); with IL-1β release (setting [7])) were 501 to 1500 nM and 301 to 500 nM, respectively.
With `CN1CCN(Cc2ccc(NC(=O)Nc3ccc(-c4cn(C5CC5)c5ncnc(N)c45)cc3F)cc2C(F)(F)F)CC1` [Id-33, 1-(4-(4-amino-7-cyclopropyl-7H-pyrrolo[2,3-d]pyrimidin-5-yl)-2-fluorophenyl)-3-(4-((4-methylpiperazin-1-yl)methyl)-3-(trifluoromethyl)phenyl)urea], the IC50 (in experiment [1] (setting [6]); with IL-1β release (setting [7])) was below 150 nM in each case.
`CN1CCN(C(=O)c2ccc(NC(=O)Nc3ccc(-c4nn(C5CC5)c5ncnc(N)c45)cc3F)cc2C(F)(F)F)CC1` [Id-48]: the IC50 was 151 to 300 nM in experiment [1] (setting [6]) and above 1000 nM in the experiment on IL-1β release (setting [7]).
